Laboratory results from US9428519B2, “Acylated derivative of homoharringtonine, preparation method therefor, and application thereof” (HANGZHOU BENSHENG PHARMACEUTICAL CO., LTD., priority 2011, dated 2016).
In brackets after ≈: the same amount, converted by molar mass.

Columns and labels:
[1] = system: U87 MG (malignant glioma cell); experiment: MTT growth inhibition of human solid tumor cells, 72 h; assay type: cell-based; conditions: Homo sapiens, U-87 MG
Summary of the method: (§1)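 Viability by MTT relative to untreated cells (100%) after 72 h drug exposure; 4000 cells/well preincubated 24 h in 10% FBS DMEM.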

MG63 (osteosarcoma) = experiment: as above; assay type: cell-based; conditions: Homo sapiens, MG-63, MTT
Summary of the method: as §1

[2] = system: CNE (nasopharyngeal carcinoma cell); experiment: as above; assay type: cell-based; conditions: for IC50 / IC90: Homo sapiens, MTT
Summary of the method: as §1

[3] = system: SK-OV-3 (ovarian cancer cell); experiment: as above; assay type: cell-based; conditions: Homo sapiens, SK-OV-3, MTT
Summary of the method: as §1

[4] = system: Huh7 (human liver cancer cell); experiment: as above; assay type: cell-based; conditions: Homo sapiens, Huh-7
Summary of the method: as §1

PC-3 (prostate cancer) = experiment: as above; assay type: cell-based; conditions: Homo sapiens, MTT
Summary of the method: as §1

[5] = system: MGC 803 (human gastric cancer cell); experiment: as above; assay type: cell-based; conditions: Homo sapiens, MGC-803
Summary of the method: as §1

[6] = system: CaES-17 (esophageal cancer cell); experiment: as above; assay type: cell-based; conditions: Homo sapiens, CaEs17
Summary of the method: as §1

[7] = system: Becap37 (human breast cancer cell); experiment: as above; assay type: cell-based; conditions: Homo sapiens
Summary of the method: as §1

[8] = system: Hep-2 (laryngeal carcinoma); experiment: as above; assay type: cell-based; conditions: Homo sapiens, HEp-2
Summary of the method: as §1

A549 (human lung cancer) = experiment: as above; assay type: cell-based; conditions: Homo sapiens, A549
Summary of the method: as §1

[9] = system: RKO (human colon adenocarcinoma cell); experiment: as above; assay type: cell-based; conditions: Homo sapiens, MTT
Summary of the method: as §1

[10] = system: Hela (human cervical cancer cell); experiment: as above; assay type: cell-based; conditions: Homo sapiens, HeLa, MTT
Summary of the method: as §1

[11] = system: PANC-1 (pancreatic cancer); experiment: as above; assay type: cell-based; conditions: Homo sapiens, PANC-1, MTT
Summary of the method: as §1

[12] = system: RPMI8226 (multiple myeloma); experiment: MTT growth inhibition of multiple myeloma cells, 72 h; assay type: cell-based, human; conditions: Homo sapiens, RPMI-8226, MTT
Summary of the method: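 Growth inhibition read by MTT after 72 h compound exposure (37 °C, 5% CO2) of 6000 RPMI8226 cells per well in 1640 medium plus 10% fetal bovine serum. Viability expressed against untreated cells (100%), from which the 72 h IC50 was derived.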

[13] = system: H9 (acute lymphoblastic leukemia, ALL); experiment: MTT growth inhibition of leukemia cells, 72 h; assay type: cell-based, human; conditions: Homo sapiens, MTT
Summary of the method: (§2)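 Each well received 6000 cells in serum-supplemented (10% FBS) 1640 medium plus compound at varied concentrations. After 72 h incubation at 37 °C, 5% CO2, viable cell concentration was determined by MTT and the 72 h IC50 derived.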

[14] = system: NB4 (acute promyelocytic leukemia, AML); experiment: MTT growth inhibition of leukemia cells, 72 h; assay type: cell-based, human; conditions: Homo sapiens, MTT
Summary of the method: as §2

[15] = system: Jurkat (acute lymphoblastic leukemia, ALL); experiment: MTT growth inhibition of leukemia cells, 72 h; assay type: cell-based, human; conditions: Homo sapiens, Jurkat
Summary of the method: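 Growth inhibition of the Jurkat ALL line was measured by MTT after 72 hours of compound exposure at 37° C. under 5% CO2. Wells of a 96-well plate held 6000 cells in 1640 medium plus 10% fetal bovine serum; untreated controls defined 100% viability, and inhibitory concentrations were derived from percent viability.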

[16] = system: Kasumi-1 (acute myeloid leukemia M2 type, AML-M2); experiment: MTT growth inhibition of leukemia cells, 72 h; assay type: cell-based, human; conditions: Homo sapiens, Kasumi 1, MTT
Summary of the method: as §2

[17] = system: K562/adr (drug-resistant, chronic myeloid leukemia, CML); experiment: MTT growth inhibition of leukemia cells, 72 h; assay type: cell-based, human; conditions: Homo sapiens, K562/Adr, MTT
Summary of the method: as §2

COC(=O)C[C@@](CCCC(C)(C)OC(=O)c1cccs1)(OC(=O)c1cccs1)C(=O)O[C@@H]1C(OC)=C[C@]23CCCN2CCc2cc4c(cc2[C@H]13)OCO4 [BS-HH-0572]
IC50 [1]: 0.23 µg/mL (≈ 0.3 µM) | IC90 [1]: 0.99 µg/mL (≈ 1.29 µM) | IC50 (MG63 (osteosarcoma)): 0.2 µg/mL (≈ 0.261 µM) | IC90 (MG63 (osteosarcoma)): 4.75 µg/mL (≈ 6.2 µM) | IC50 [2]: 0.35 µg/mL (≈ 0.457 µM) | IC90 [2]: 14.3 µg/mL (≈ 18.6 µM) | IC50 [3]: 0.98 µg/mL (≈ 1.28 µM) | IC90 [3]: > 16 µg/mL | IC50 [4]: 0.17 µg/mL (≈ 0.222 µM) | IC90 [4]: 1.7 µg/mL (≈ 2.22 µM) | IC50 (PC-3 (prostate cancer)): 1.84 µg/mL (≈ 2.4 µM) | IC90 (PC-3 (prostate cancer)): > 16 µg/mL | IC50 [5]: 0.24 µg/mL (≈ 0.313 µM) | IC90 [5]: 1.62 µg/mL (≈ 2.12 µM) | IC50 [6]: 0.74 µg/mL (≈ 0.966 µM) | IC90 [6]: 16 µg/mL (≈ 20.9 µM) | IC50 [7]: 0.2 µg/mL (≈ 0.261 µM) | IC90 [7]: 9.75 µg/mL (≈ 12.7 µM) | IC50 [8]: 0.23 µg/mL (≈ 0.3 µM) | IC90 [8]: > 16 µg/mL | IC50 (A549 (human lung cancer)): 0.48 µg/mL (≈ 0.627 µM) | IC90 (A549 (human lung cancer)): > 16 µg/mL | IC50 [9]: 0.12 µg/mL (≈ 0.157 µM) | IC90 [9]: 0.56 µg/mL (≈ 0.731 µM) | IC50 [10]: 0.45 µg/mL (≈ 0.588 µM) | IC90 [10]: 11.5 µg/mL (≈ 15.1 µM) | IC50 [11]: 0.43 µg/mL (≈ 0.561 µM) | IC90 [11]: 12.6 µg/mL (≈ 16.4 µM) | IC50 [12]: 0.155 µg/mL (≈ 0.202 µM) | IC90 [12]: 1.13 µg/mL (≈ 1.48 µM) | IC50 [13]: 0.21 µg/mL (≈ 0.274 µM) | IC90 [13]: 0.48 µg/mL (≈ 0.627 µM) | IC50 [14]: 0.12 µg/mL (≈ 0.157 µM) | IC90 [14]: 0.4 µg/mL (≈ 0.522 µM) | IC50 [15]: 0.11 µg/mL (≈ 0.144 µM) | IC90 [15]: 7.5 µg/mL (≈ 9.79 µM) | IC50 [16]: 0.065 µg/mL (≈ 0.0849 µM) | IC90 [16]: 0.4 µg/mL (≈ 0.522 µM) | IC50 [17]: 0.32 µg/mL (≈ 0.418 µM) | IC90 [17]: 16 µg/mL (≈ 20.9 µM)

COC(=O)C[C@](O)(CCCC(C)(C)OC(=O)C1CCCC1)C(=O)O[C@@H]1C(OC)=C[C@]23CCCN2CCc2cc4c(cc2[C@H]13)OCO4 [BS-HH-077]
IC50 [1]: 0.035 µg/mL (≈ 0.0545 µM) | IC90 [1]: 0.16 µg/mL (≈ 0.249 µM) | IC50 (MG63 (osteosarcoma)): 0.021 µg/mL (≈ 0.0327 µM) | IC90 (MG63 (osteosarcoma)): 5.14 µg/mL (≈ 8.01 µM) | IC50 [2]: 0.012 µg/mL (≈ 0.0187 µM) | IC90 [2]: > 16 µg/mL | anti-CNE effect relative to homoharringtonine ([2]; vs HHT): more than 3 fold | IC50 [3]: 0.034 µg/mL (≈ 0.053 µM) | IC90 [3]: > 16 µg/mL | IC50 [4]: 0.016 µg/mL (≈ 0.0249 µM) | IC90 [4]: 0.36 µg/mL (≈ 0.561 µM) | IC50 (PC-3 (prostate cancer)): 0.039 µg/mL (≈ 0.0608 µM) | IC90 (PC-3 (prostate cancer)): > 16 µg/mL | IC50 [5]: 0.021 µg/mL (≈ 0.0327 µM) | IC90 [5]: 0.087 µg/mL (≈ 0.136 µM) | IC50 [6]: 0.031 µg/mL (≈ 0.0483 µM) | IC90 [6]: 16 µg/mL (≈ 24.9 µM) | IC50 [7]: 0.007 µg/mL (≈ 0.0109 µM) | IC90 [7]: 11.1 µg/mL (≈ 17.3 µM) | IC50 [8]: 0.007 µg/mL (≈ 0.0109 µM) | IC90 [8]: > 16 µg/mL | IC50 (A549 (human lung cancer)): 0.02 µg/mL (≈ 0.0312 µM) | IC90 (A549 (human lung cancer)): > 16 µg/mL | IC50 [9]: 0.006 µg/mL (≈ 0.00935 µM) | IC90 [9]: 0.02 µg/mL (≈ 0.0312 µM) | IC50 [10]: 0.014 µg/mL (≈ 0.0218 µM) | IC90 [10]: 16 µg/mL (≈ 24.9 µM) | IC50 [11]: 0.055 µg/mL (≈ 0.0857 µM) | IC90 [11]: > 16 µg/mL | IC50 [12]: 0.004 µg/mL (≈ 0.00623 µM) | IC90 [12]: 0.024 µg/mL (≈ 0.0374 µM) | IC50 [13]: 0.01 µg/mL (≈ 0.0156 µM) | IC90 [13]: 0.03 µg/mL (≈ 0.0467 µM) | IC50 [14]: 0.009 µg/mL (≈ 0.014 µM) | IC90 [14]: 0.022 µg/mL (≈ 0.0343 µM) | IC50 [15]: 0.001 µg/mL (≈ 0.00156 µM) | IC90 [15]: 11.4 µg/mL (≈ 17.7 µM) | IC50 [16]: 0.004 µg/mL (≈ 0.00623 µM) | IC90 [16]: 0.012 µg/mL (≈ 0.0187 µM) | IC50 [17]: 0.01 µg/mL (≈ 0.0156 µM) | IC90 [17]: 0.05 µg/mL (≈ 0.0779 µM)
